According to paper PMC10350920, “Development of a 2,4-Diaminothiazole Series for the Treatment of Human African Trypanosomiasis Highlights the Importance of Static–Cidal Screening of Analogues” (Journal of Medicinal Chemistry, 2023):
Read-outs that look alike come from different tables or passages of the source.

How the values were obtained:
BSF trypanosomes = experiment: Static–cidal assay; format: cell-based, T. brucei; details: lower concentrations cytostatic
From the text: To complement our established T. brucei cell-based screen, in the course of these studies, we developed an assay that allows discrimination of compounds that are cytostatic from those that are cytocidal.[15] In this assay, static and cidal compounds are categorized by analysis of growth curves, with cidal compounds causing a decrease in parasite numbers. Commonly, phenotypic screens with T. brucei are end-point assays with live-cell indicators used as the final readout. In our […] assay, bloodstream trypanosomes are grown in the presence of test compounds for 3 days with a starting cell density well below the assay limit of detection, thus making it impossible to distinguish cidal from static compounds. To assess if compounds within this diaminothiazole series kill trypanosomes or merely stop parasite growth, we profiled a panel of compounds in our static–cidal assay. […] Similarly in rats, the concentration would be below the level for cidal activity.
An assay to assess initial indications of the cidal nature of the compound series was conducted as previously reported.[15] […] After 4 h, the time = 0 plate was read using a PerkinElmer Victor 3 plate reader (excitation 528 nm; emission 590 nm). […]

[1] = system: Tb927.8.6290 overexpressing cell lines (A258P); experiment: Drug sensitivity, line overexpressing Tb927.8.6290 A258P; format: cell-based, T. b. brucei; details: for EC50: Trypanosoma brucei
Method: Drug sensitivity assays were carried out with BSF T. b. brucei “single marker” S427 or BSF T. b. brucei, Lister 427, MiTat 1.2, clone 221a 2T1 cells,[45] cells grown at 37 °C with 5% CO2 in an HMI-9T medium[46] as previously described.[47] 2T1 cells were initially maintained with 1 μg mL^–1 puromycin and 1 μg mL^–1 phleomycin prior to transfection or 2.5 μg mL^–1 hygromycin and 1 μg mL^–1 phleomycin after transfection. Induction of overexpression was achieved by the addition of 1 μg mL^–1 tetracycline to the culture medium.
The following primers were used to PCR amplify Tb927.8.6290 from genomic DNA isolated from wild-type and 38-resistant trypanosomes 5′-[…]-3′ (PacI site in bold) and 5′-[…]-3′ (BamHI site in bold). The PCR products (1272 bp) were then cloned into the pRPa plasmid.[53] The accuracy of the plasmid constructs was confirmed by in-house Sanger sequencing and then linearized with AscI prior to transfection. The linearized plasmids were introduced into 2T1 T. b. brucei cells following removal of puromycin from the media and selected with 2.5 μg mL^–1 hygromycin and 1 μg mL^–1 phleomycin. Two independent clones were selected for further studies.

[2] = Mammalian cell counter screen (MRC-5); format: cell-based, human; details: human, MRC-5 fibroblasts; mean values; number of replicates in parentheses
Method: Drug sensitivity assays with BSF T. b. brucei “single marker” S427 and human MRC-5 fibroblasts were conducted as previously described.[43]

[3] = Human microsomal intrinsic clearance; format: in vitro ADME; details: second value of mouse/human cell
[4] = Mouse liver microsomal intrinsic clearance; format: in vitro ADME
Procedure, shortened: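 Compound (0.5 μM) incubated with liver microsomes (0.5 mg/mL, 50 mM potassium phosphate pH 7.4) and excess NADPH; samples quenched at 0–30 min and analysed by UPLC–MS/MS. Rate constant from exponential decay of compound/internal standard ratio; CLint scaled with 52.5 mg protein/g liver.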

T. b. brucei S427 = experiment: Stage 1 efficacy study in rats; format: in vivo, male SD rats; details: infected rats, single dose, 100 mg kg^–1 PO
Method: Stage 1 efficacy experiments using T. b. brucei S427 were performed as described,[44] with minor modifications. In brief, male SD rats (38) or female HRN (16) and NMRI (16, 38) mice (3–5 per group) were injected intraperitoneally with 1 × 10^4 BSFs of T. brucei. These BSFs come from a stock of cryopreserved stabilates containing 10% glycerol. The stabilate was suspended in 20 mM Hanks’ balanced salt solution with glucose to obtain a trypanosome concentration of 5 × 10^4 cells mL^–1. Each mouse was injected with 0.2 mL. […] Dose concentrations were 1.25, 2.5, 5, 7.5, 10, 30, and 50 mg kg^–1 free base (16) or 100 mg kg^–1 free base (38). The doses were prepared fresh daily, using 5% DMSO/40% PEG400/55% Milli-Q (16) or 15% solutol/85% Milli-Q (38), and the dose volume was 10 mL kg^–1. One group of three mice was an untreated control group.

[5] = mouse, in vivo, ip
[6] = Pharmacokinetics in HRN mice; details: IP, 10 mg kg^–1

Molecule | concentration that is cidal (reduction in parasite number) (BSF trypanosomes) | EC50 ([1]; read-out: EC50, A258P +TET) | EC50 ([1]; read-out: EC50, A258P –TET) | fold shift, A258P ([1]; −TET vs +TET EC50, in brackets) | EC50 [2] | CLint (human) [3] | CLint (mouse) [4] | stage 1 efficacy, parasitemia (T. b. brucei S427) | exposure in HRN mice relative to NMRI mice [5] | AUC [6] | Tmax [6]
CC(C)(O)CC(=O)c1sc(Nc2ccc(F)c(F)c2)nc1N [Compound 38, 1-(4-Amino-2-((3,4-difluorophenyl)amino)thiazol-5-yl)-3-hydroxy-3-methylbutan-1-one] | 50 µM | 12 ± 0.25 µM | 0.31 ± 0.009 µM | 40 | 46 µM | < 0.5 mL·min/g | 2.2 mL·min/g | no reduction in parasitemia |  |  | 
(4-Amino-2-(cyclohexylamino)thiazol-5-yl)(2,6-difluorophenyl)methanone [Compound 16] | above 5.6 μM |  |  |  |  |  | 15 mL·min/g |  | 15 fold | 1,000,000 ng mL h^–1 | 30 min
